System: MCF7 cells
Test: Cytotoxic reagent assay: Doxorubicin, MTT live cells and 41/7 ELISA
Format: cell-based
Conditions: 450 nM, 1-96 hours, MCF7, FIG. 7
Description: 2. In this experiment, the effect of a known cancer chemotherapeutic agent (Doxorubicin, Sigma Inc.) on soluble nuclear matrix protein release into extracellular fluid was assessed.
A standard curve for live cells was established with MCF7 cells (breast carcinoma, adherent). Cells were seeded into 6 well plates in 2 mls of DME complete (5% FCS+SerXtend) with 0.5 micrograms/ml mitomycin C (Sigma, Inc., Cincinnati) to prevent any cell growth.
After incubating overnight at 37° C., 200 μl of 3-[4, 5 Dimethylthiazol-2-4] 2, 5-dipheny(tetrazoluim bromide), MTT, stock solution (5 mg/ml MTT in phosphate-buffered saline, Sigma, Inc.) were added to each well. After the plates were incubated for four hours at 37° C. and 5% CO2 the supernatants were aspirated off and 4 mls of DMSO (dimethyl sulfoxide) were added to solubilize remaining crystals. This was drawn off and the absorbance was read in the spectrophotometer at 562 nm against a blank of straight DMSO.
Cells were treated with Doxorubicin as follows: MCF7 cells were seeded into 6 well plates at a density of 1.3×10^5 cells/well in 2 mls DME complete. […]
At 1, 24, 48, 72, and 96 hours, the supernatants were removed and frozen at −20° C. to assay later. After replacing the supernatant with a fresh 2 ml of DME complete, the number of live cells was determined using the same procedure as for the standard curve. […]

COc1cccc2c1C(=O)c1c(O)c3c(c(O)c1C2=O)C[C@@](O)(C(=O)CO)C[C@@H]3O[C@H]1C[C@H](N)[C@H](O)[C@H](C)O1 [Doxorubicin]
cell viability (MTT live cells) versus nuclear matrix protein released (41/7 ELISA): inversely related to nuclear matrix protein released

— patent US6740494B2, “Nuclear matrix protein fluid assay” (Matritech, Inc., priority 1991, dated 2004)
